Patent publication US10245229B2, “Pulmonary delivery of mRNA to non-lung target cells” (Shire Human Genetic Therapies, Inc., priority 2012, dated 2019)

Tested on: non-lung cells
Assay: Comparison of delivery vehicles: luminescence in non-lung cells following pulmonary delivery
Format: in vivo
Details: following pulmonary delivery of FFL mRNA with the delivery vehicle

SMILES: CCCCCCCC/C=C\CCCCCCCC(=O)OCC(C[N+](C)(C)C)OC(=O)CCCCCCC/C=C\CCCCCCCC (stereo not shown) [DOTAP, 1,2-Dioleoyl-3-Trimethylammonium-Propane]
- Luminescence / protein production in non-lung cells: did not show luminescence in non-lung cells
